Results from US8206756B2, “Herbal composition for inflammatory disorders” (Piramal Life Sciences Limited, priority 2005, dated 2012).

How the values were obtained:
[1] = tested on: IL-1β; assay: LPS-stimulated IL-1β release in hPBMCs (ELISA); assay type: cell-based; conditions: Homo sapiens; LPS-stimulated hPBMC
Method: Primary screening—Human peripheral blood mononuclear cells (hPBMCs). TNF-α production by lipopolysaccharides (LPS) in hPBMCs was measured according to the method described by Jansky, L. et al (Physiol. Res. 52: 593-598, (2003)). Blood was collected from healthy donors into Potassium EDTA vacutainer tubes (BD vacutainer). The PBMCs were isolated using gradient centrifugation in Histopaque-1077 solution (Sigma). Isolated PBMCs were suspended in RPMI 1640 culture medium (Gibco BRL, Pasley, UK) containing 10% fetal bovine serum (FBS) (Hyclone, Utah, USA), 100 U/ml penicillin (Sigma Chemical Co. St Louis, Mo.) and 100 μg/ml streptomycin (Sigma Chemical Co. St Louis, Mo.). The cell concentration was adjusted to 1×10^6 cells/ml. The viability as determined by trypan blue dye exclusion was uniformly ≧98%. […] The % inhibition was recorded. Percent cytotoxicity of the test samples compared to control was evaluated.
The effect of the plant extract on the proinflammatory cytokines: TNF-α, interleukin-1β (IL-1β), interleukin-6 (IL-6) and interleukin-8 (IL-8) was measured using the supernatants generated in the primary screening assay. […]
The effect of the Compound 1, on the proinflammatory cytokines: TNF-α interleukin-1β (IL-1β), interleukin-6 (IL-6) and interleukin-8 (IL-8) was measured using the supernatants generated in the primary screening assay. […]

[2] = tested on: E-Selectin; assay: Cell-ELISA for adhesion molecule expression in HUVECs: E-Selectin; assay type: cell-based; conditions: Homo sapiens; TNF-α-induced surface expression, HUVEC
Method: The assay was designed on the basis of reference Transplantation, Vol 63(5), 759-764, 1997 with modifications.
Human Umbilical Vein Endothelial Cells (HUVECs) were obtained from Cascade Biologics and were maintained in M200 (Cascade Biologics, Portland, Oreg.) supplemented with low serum growth supplement (LSGS) at 37° C. in a 5% CO2 incubator. U937 cells (ATCC, Manassas, Va.) were grown in the RPMI 1640 medium supplemented with 10% FBS (Hyclone, Logan, Utah). Recombinant human TNFα, antibodies to VCAM-1, ICAM-1, E-Selectin were obtained from R&D Systems and LPS was obtained from Sigma (St. Louis, Mo.).
HUVECs were plated at […] in 96-well fibronectin-coated plates. The cells were stimulated with TNF-α (10 ng/ml) or LPS (1 μg/ml), 30 min after addition of test compound. After stimulation, cells (E-Selectin and ICAM-1) were fixed with paraformaldehyde in phosphate buffer saline (PBS). Non specific binding was blocked by 2% bovine serum albumin (BSA) in phosphate buffer saline (PBS) for 1 h, and the cells were incubated with primary antibody for 2 h. […] After washing, seven times, 3,3′5,5′-tetramethylbenzidine liquid substrate (TMB substrate) was added and the optical density of each well was determined at 450 nm using a microtitre plate reader (Spectramax, Molecular Devices, Calif.). […] Percent inhibition of the test sample compared to the control is evaluated. […]

[3] = tested on: TNF-α; assay: LPS-induced TNF-α release in BALB/c mice; assay type: in vivo; conditions: LPS 1 mg/kg i.p., plasma
Method: The protocol described by Fukuda T. et al (Eur. J. Pharmacol., 391: 317-320, (2000)) was followed. BALB/c mice were divided into groups of ten each. The test sample, suspended in Tween 80 and 0.5% carboxy methylcellulose (CMC), was orally (p.o.) administered to the mice. One hour later, LPS dissolved in sterile, pyrogen-free saline was administered i.p. at the dose of 1 mg/kg. The negative control group received saline as an i.p injection, while all other groups received LPS. Rolipram (30 mg/kg, p.o.) was used as the standard drug. One and a half hours later, under urethane anaesthesia (1.5 g/kg, i.p.) blood was collected from the abdominal artery using a 1 ml syringe flushed with heparin (500 IU/ml). Heparin (5 μl) was used as an anticoagulant in the blood collection tubes. Plasma was separated by centrifugation at 10000 rpm at room temperature, aliquoted and stored at −70° C. until analysis. TNF-α levels in the blood samples were assayed using ELISA and percent inhibition of TNF-α release compared to the control group was calculated.

C=C1C(=O)OC2C3=C(C)CCCC3(C)CCC12O (centres unmarked) [Compound 1, 3a-hydroxy-5a,9-dimethyl-3-methylene-3a,4,5,5a,6,7,8,9b-octahydro-3H-naphtho[1,2-b]furan-2-one]
IC50 [1]: 400 nM | IC50 [2]: 200 nM | % inhibition of TNF-α release ([3]; 10 mg/kg p.o.): 28.69 ± 13.71% | % inhibition of TNF-α release ([3]; 30 mg/kg p.o.): 39.98 ± 10.32% | % inhibition of TNF-α release ([3]; 100 mg/kg p.o.): 87.10 ± 3.67%
